According to ChEMBL document CHEMBL1268889, “Structural characteristics of thiosemicarbazones as inhibitors of melanogenesis” (Bioorg Med Chem Lett, 2010):

How the values were obtained:
B16 [1] = assay: Inhibition of melanogenesis in mouse B16 cells at 10 uM; assay type: functional
B16 [2] = assay: Inhibition of melanogenesis in mouse B16 cells; assay type: functional, cell-based

Row | SMILES | IC50 (B16 [2]) [µM] | inhibition at 10 µM (B16 [1]) [%]
1 | Cc1ccc(/C=N/NC(N)=S)cc1 | – | 64
2 | CCc1ccc(/C=N/NC(N)=S)cc1 | – | > 100
3 | NC(=S)N/N=C/C1CCCCC1 | 3.4 | 81
4 | Cc1cccc(/C=N/NC(N)=S)c1 | 2.8 | > 100
5 | NC(=S)N/N=C/c1cccc(Cl)c1 | 2.4 | > 100
6 | NC(=S)N/N=C\c1cccc2ccccc12 | 1.1 | > 100
7 | COc1cccc(/C=N/NC(N)=S)c1 | 15.4 | 40
8 | N/C(S)=N/N=C/c1ccccn1 | > 30 | 15
9 | NC(=S)N/N=C/c1ccc(Cl)cc1 | 4.2 | 92
10 | COc1ccc(/C=N/NC(N)=S)cc1 | 15.1 | 42

Further lines, with some results ahead:

Row | IC50 (B16 [2]) [µM] | SMILES | inhibition at 10 µM (B16 [1]) [%]
11 | 3.4 | Cc1ccccc1/C=N/NC(N)=S | > 100
12 | 2.7 | CCc1ccccc1/C=N/NC(N)=S | > 100
13 | 1.4 | NC(=S)N/N=C/c1ccccc1Cl | > 100
14 | 21 | NC(=S)N/N=C/c1ccccc1O | 24
15 | > 10 | NC(=S)N/N=C/c1ccccc1 [PHENYLTHIOSEMICARBAZONE] | < 10
